For the first experiment, the system named is m-IMCD3 cells. The experiment is described as follows: Inhibition of PGE2-stimulated in vitro cyst formation in m-IMCD3 cells. The settings on record: Mus musculus, mIMCD3, 144 h, 3 μM; mean cyst area, 100% for (DMSO + PGE2) and 0% for DMSO control; 6 days of culture; read-out: % Cyst area after incubation with 3 μM test compound. Format: cell-based, mouse. On the procedure:
HEK 293 and MDCK cells (Public Health England, Cell Culture Collections) were maintained in Dulbecco's Modified Eagle's Medium (DMEM) supplemented with 10% (v/v) fetal bovine serum (FBS) (Seralab), 2 mM L-glutamine and 100 U/mL penicillin streptomycin cocktail (ThermoFisher); termed complete media. Clonal HEK 293 cell lines were maintained in complete media supplemented with 0.6 mg/ml G418 (Enzo Life Sciences). Mouse inner medullary collecting duct (m-IMCD3) cells [American Type Culture Collection (ATCC)] were maintained in media consisting of DMEM/Hams F-12 50/50 Mix (DMEM F12; Corning) supplemented with penicillin streptomycin cocktail (100 U/mL) and FBS (10% v/v) (DMEM F12-10% FBS).
The mouse Inner Medullary Collecting Duct cell line (m-IMCD3) spontaneously forms cystic spheroids in 3D culture with a Type 1 collagen/Matrigel extracellular matrix. This process can be stimulated with agents which raise intracellular cAMP and is used as an in vitro model for the formation of cystic structures in the kidneys of patients with ADPKD.
Rat Collagen I (Fisher Scientific) is prepared on ice by neutralising with 1M NaOH and diluting with a 2× volume of DMEM/F12+10% FBS. This is mixed 1:1.1 with ice cold Matrigel (Corning) for coating plates (coating mix), and 1:0.93 with Matrigel for cell plating (plating mix).
The assay is conducted in the wells of a 96-well plate culture dish using a total volume of 130 μL of collagen/Matrigel/DMEM F12-10% FBS suspension in growth media for each matrix plug per individual well. Initially, 30 μL of collagen/Matrigel/DMEM F12-10% FBS (coating mix) is added into the well of a 96 well plate and the collagen is set to a gel by incubating at 37° C. for at least 15 minutes. A second layer of 100 μL collagen/Matrigel suspension (plating mix) containing m-IMCD3 cells (2.75×10^6 m-IMCD3 cells per 96-well plate) is layered over the coating mix and the collagen/Matrigel/cell mix again set to a gel by incubating at 37° C. Cell cultures are maintained at 37° C. in an atmosphere of 5% CO2, 95% air.
Between 18 and 24 h after plating, test compound(s) as DMSO stock solutions [0.1% (v/v) final DMSO concentration] and PGE2 (100 nM final concentration) in DMEM F12-10% FBS are added in quadruplicate wells per condition. Media, together with the test compound and PGE2 are replenished after 2 or 3 days. After 6 days of culture z stack images of the wells are captured using the Nikon Eclipse Ti2-E microscope. Nikon General Analysis software is used to measure the following parameters in each well: the mean cyst area, the number of cysts, and the total cyst area.
PDE4 long form activators inhibited in vitro cyst formation in m-IMCD3 cells. Data are shown in Table 4 as mean cyst area (%), compared to 100% for (DMSO+PGE2) and 0% for DMSO control.
As to `O=C(c1ccc(Cl)nc1)N1CCc2nc(N3C4CCC3CNC4)sc2C1` [Example 221, (2-(3,8-diazabicyclo[3.2.1]octan-8-yl)-6,7-dihydrothiazolo[5,4-c]pyridin-5(4H)-yl)(6-chloropyridin-3-yl)methanone], the activity at 3 µM worked out at 0%.

Take `CC(C)(C)[C@@H](O)C(=O)N1CCc2nc(N3C4CCC3CNC4)sc2C1` [Example 176, (2R)-1-(2-(3,8-diazabicyclo[3.2.1]octan-8-yl)-6,7-dihydrothiazolo[5,4-c]pyridin-5(4H)-yl)-2-hydroxy-3,3-dimethylbutan-1-one]: the activity at 3 µM stood at 12%.

Turning to `O=C(C1COc2ccccc2O1)N1CCc2nc(N3C4CCC3CNC4)sc2C1` (centres unmarked) [Example 180, (2-(3,8-diazabicyclo[3.2.1]octan-8-yl)-6,7-dihydrothiazolo[5,4-c]pyridin-5(4H)-yl)(2,3-dihydrobenzo[b][1,4]dioxin-2-yl)methanone], the activity at 3 µM came out at 2%.

On to `COC(C(=O)N1CCc2nc(N3C4CCC3CNC4)sc2C1)C1CCCC1` (centres unmarked) [Example 157, 1-(2-(3,8-diazabicyclo[3.2.1]octan-8-yl)-6,7-dihydrothiazolo[5,4-c]pyridin-5(4H)-yl)-2-cyclopentyl-2-methoxyethan-1-one], for which the activity at 3 µM came to 17%.

For the compound `CCN1CCN(c2nc3c(s2)CN(C(=O)CC(C)(C)C)CC3)CC1` [Example 299, 1-(2-(4-ethylpiperazin-1-yl)-6,7-dihydrothiazolo[5,4-c]pyridin-5(4H)-yl)-3,3-dimethylbutan-1-one], the activity at 3 µM was 3%.

For `O=C(c1ccc(C(F)F)cc1)N1CCc2nc(N3C4CCC3CNC4)sc2C1` [Example 229, (2-(3,8-diazabicyclo[3.2.1]octan-8-yl)-6,7-dihydrothiazolo[5,4-c]pyridin-5(4H)-yl)(4-(difluoromethyl)phenyl)methanone], the activity at 3 µM is -1%.

Turning to `N#Cc1ccccc1C(=O)N1CCc2nc(N3C4CCC3CNC4)sc2C1` [Example 213, 2-(2-(3,8-diazabicyclo[3.2.1]octan-8-yl)-4,5,6,7-tetrahydrothiazolo[5,4-c]pyridine-5-carbonyl)benzonitrile], the activity at 3 µM was 17%.

In the case of `O=C(CC1CCCC1)N1CCc2nc(N3CCNC[C@@H]3CO)sc2C1` [Example 275, (R)-2-cyclopentyl-1-(2-(2-(hydroxymethyl)piperazin-1-yl)-6,7-dihydrothiazolo[5,4-c]pyridin-5(4H)-yl)ethan-1-one], the activity at 3 µM is 19%.

On to `O=C([C@H](O)C1CCCCC1)N1CCc2nc(N3C4CCC3CNC4)sc2C1` [Example 177, (2R)-1-(2-(3,8-diazabicyclo[3.2.1]octan-8-yl)-6,7-dihydrothiazolo[5,4-c]pyridin-5(4H)-yl)-2-cyclohexyl-2-hydroxyethan-1-one], for which the activity at 3 µM was -2%.

With `O=C(COc1ccccc1OC(F)(F)F)N1CCc2nc(N3C4CCC3CNC4)sc2C1` [Example 164, 1-(2-(3,8-diazabicyclo[3.2.1]octan-8-yl)-6,7-dihydrothiazolo[5,4-c]pyridin-5(4H)-yl)-2-(2-(trifluoromethoxy)phenoxy)ethan-1-one], the activity at 3 µM is -7%.

Consider `O=C(c1cccnc1Cl)N1CCc2nc(N3C4CCC3CNC4)sc2C1` [Example 224, (2-(3,8-diazabicyclo[3.2.1]octan-8-yl)-6,7-dihydrothiazolo[5,4-c]pyridin-5(4H)-yl)(2-chloropyridin-3-yl)methanone], for which the activity at 3 µM was 22%.

As for `O=C(c1cccc2c1CCO2)N1CCc2nc(N3C4CCC3CNC4)sc2C1` [Example 236, (2-(3,8-diazabicyclo[3.2.1]octan-8-yl)-6,7-dihydrothiazolo[5,4-c]pyridin-5(4H)-yl)(2,3-dihydrobenzofuran-4-yl)methanone], the activity at 3 µM was 27%.

Staying with this experiment, now noted: Mus musculus, mIMCD3, 144 h, 10 μM; mean cyst area, 100% for (DMSO + PGE2) and 0% for DMSO control; 6 days of culture; read-out: % Cyst area after incubation with 10 μM test compound.
For the compound `O=C(CC1CCC(F)(F)CC1)N1CCn2nc(N3C4CCC3CNC4)nc2C1` [Example 97, 1-(2-(3,8-diazabicyclo[3.2.1]octan-8-yl)-5,6-dihydro-[1,2,4]triazolo[1,5-a]pyrazin-7 (8H)-yl)-2-(4,4-difluorocyclohexyl)ethan-1-one], the activity at 10 µM came to 6%.

As for `O=C(COc1ccc(F)cc1)N1CCc2nc(N3CCNCC3)sc2C1` [Example 110, 2-(4-fluorophenoxy)-1-(2-(piperazin-1-yl)-6,7-dihydrothiazolo[5,4-c]pyridin-5(4H)-yl)ethan-1-one], the activity at 10 µM is -5%.

With `CC(C)[C@@H](C)C(=O)N1CCc2nc(N3C4CCC3CNC4)sc2C1` [Example 19, (2R)-1-(2-(3,8-diazabicyclo[3.2.1]octan-8-yl)-6,7-dihydrothiazolo[5,4-c]pyridin-5(4H)-yl)-2,3-dimethylbutan-1-one], the activity at 10 µM was -2%.

Consider `CC1(CC(=O)N2CCc3nc(N4C5CCC4CNC5)sc3C2)CCC1` [Example 130, 1-(2-(3,8-diazabicyclo[3.2.1]octan-8-yl)-6,7-dihydrothiazolo[5,4-c]pyridin-5(4H)-yl)-2-(1-methylcyclobutyl)ethan-1-one], for which the activity at 10 µM is -5%.

Consider `CN1CC2CCC(C1)N2c1nc2c(s1)CN(C(=O)CC1CCC(F)(F)CC1)CC2(C)C` [Example 103, 2-(4,4-difluorocyclohexyl)-1-(7,7-dimethyl-2-(3-methyl-3,8-diazabicyclo[3.2.1]octan-8-yl)-6,7-dihydrothiazolo[5,4-c]pyridin-5(4H)-yl)ethan-1-one], for which the activity at 10 µM is -1%.

`Cc1cc(F)ccc1CC(=O)N1CCc2nc(N3C4CCC3CNC4)sc2C1` [Example 156, 1-(2-(3,8-diazabicyclo[3.2.1]octan-8-yl)-6,7-dihydrothiazolo[5,4-c]pyridin-5(4H)-yl)-2-(4-fluoro-2-methylphenyl)ethan-1-one]: the activity at 10 µM was 0%.

Take `O=C(CC1CCCC1)N1CCc2nc(N3CCNCC3)sc2C1` [Example 109, 2-cyclopentyl-1-(2-(piperazin-1-yl)-6,7-dihydrothiazolo[5,4-c]pyridin-5(4H)-yl)ethan-1-one]: the activity at 10 µM turned out to be 6%.

Take `COCC1(CC(=O)N2CCc3nc(N4C5CCC4CNC5)sc3C2)CCCC1` [Example 135, 1-(2-(3,8-diazabicyclo[3.2.1]octan-8-yl)-6,7-dihydrothiazolo[5,4-c]pyridin-5(4H)-yl)-2-(1-(methoxymethyl)cyclopentyl)ethan-1-one]: the activity at 10 µM is -6%.

As for `CC(Oc1ccccc1)C(=O)N1CCc2nc(N3C4CCC3CNC4)sc2C1` (centres unmarked) [Example 23, 1-(2-(3,8-diazabicyclo[3.2.1]octan-8-yl)-6,7-dihydrothiazolo[5,4-c]pyridin-5(4H)-yl)-2-phenoxypropan-1-one], the activity at 10 µM was found to be 0%.

For the compound `CC1(C)CCCC1C(=O)N1CCc2nc(N3C4CCC3CNC4)sc2C1` (centres unmarked) [Example 37, (2-(3,8-diazabicyclo[3.2.1]octan-8-yl)-6,7-dihydrothiazolo[5,4-c]pyridin-5(4H)-yl)(2,2-dimethylcyclopentyl)methanone], the activity at 10 µM is -2%.

On to `CN1CC2CCC(C1)N2c1cc2n(n1)CCN(C(=O)CC1CCC(F)(F)CC1)C2` [Example 86, 2-(4,4-difluorocyclohexyl)-1-(2-(3-methyl-3,8-diazabicyclo[3.2.1]octan-8-yl)-6,7-dihydropyrazolo[1,5-a]pyrazin-5(4H)-yl)ethan-1-one], for which the activity at 10 µM was -1%.
